Source: article PMC5484023, “Multi-site binding of epigallocatechin gallate to human serum albumin measured by NMR and isothermal titration calorimetry” (Bioscience Reports, 2017)

Molecular target: T1, human serum albumin (HSA) (Homo sapiens, UniProt P02768)
T1 construct: gene ALB; full-length, fatty acid and globulin-free HSA purified from serum
Experiment: ITC ([…]°C, pH […]), two sets of independent sites; confirmed by 1H NMR chemical shift titration (Kd1 […])
Assay type: binding

T1 sequence (P02768 25-609): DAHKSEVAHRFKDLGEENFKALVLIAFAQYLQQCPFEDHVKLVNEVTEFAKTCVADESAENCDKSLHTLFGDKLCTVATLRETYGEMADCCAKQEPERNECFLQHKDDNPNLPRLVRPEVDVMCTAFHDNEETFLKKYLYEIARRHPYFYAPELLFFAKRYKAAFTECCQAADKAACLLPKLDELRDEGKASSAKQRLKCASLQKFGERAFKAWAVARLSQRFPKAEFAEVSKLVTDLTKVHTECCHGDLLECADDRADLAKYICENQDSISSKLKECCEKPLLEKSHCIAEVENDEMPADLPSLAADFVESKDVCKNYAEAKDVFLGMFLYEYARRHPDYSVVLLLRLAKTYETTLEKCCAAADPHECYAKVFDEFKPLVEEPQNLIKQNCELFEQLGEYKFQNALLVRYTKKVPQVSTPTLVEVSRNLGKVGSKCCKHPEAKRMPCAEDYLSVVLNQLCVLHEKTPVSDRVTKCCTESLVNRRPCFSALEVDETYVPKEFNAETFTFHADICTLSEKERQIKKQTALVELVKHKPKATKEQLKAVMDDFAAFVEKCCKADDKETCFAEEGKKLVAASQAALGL

O=C(O[C@@H]1Cc2c(O)cc(O)cc2O[C@@H]1c1cc(O)c(O)c(O)c1)c1cc(O)c(O)c(O)c1 [epigallocatechin gallate]
Kd: 22 ± 4 µM
